# Entries after “also recorded” stand apart in the source; their conditions may differ.
# Test system: SKOV3 cells
# Assay: Effect of SAHA on SKOV3 3D aggregates and cellular bridges cultured on Si—TiB2 substrate
# Assay type: cell-based
# Method: Cell culture of ovarian cancer cell lines: SKOV3 and OVCAR3 cell lines were cultured in Cancer Media (CM) ([…] with glutamine (02-0205 VWR Life Science), 1% antibiotics (Sigma-Aldrich A5955), and 0.1% insulin (ABM TM053)). For cell culture on substrates CM was supplemented with 10 ng/mL human FGF2 (Sigma-Aldrich F0291)+1% heparin (Sigma-Aldrich H3393). Cells were cultured in a humidified incubator at 37° C. with 5% CO2.
# The inventors used their Si-diborides substrates (described in [200]) for culture of SKOV3 (ATCC® HTB-77™) cancer cells of high invasive potential. Cells were seeded on Si—TiB2 substrates (2×2 cm) at a density of 600/mm^2, and each substrate will be placed in a well of a 24-well dish and cultured in RPMI 1640 with glutamine, 20% FBS, 1% antibiotics, 0.01 mg/mL Insulin, 10 ng/ml FGF2 and 1% heparin 1 over 10 days to establish a monolayer (days 1-3) or allowed to form 3D aggregates (days 4-10). A 2×2 cm substrate can accommodate at least 500, 300 μm circle patterns (aka 500 3D aggregates of ˜150-200 μm diameter and 60-80 μm thickness). Based on preliminary data, the rate of “cellular bridge” formation is 13%/substrate or 50%/aggregate. As shown in FIGS. 9A-C, FIGS. 10A-C and FIG. 11A-B, highly invasive SKOV3 begin as monolayers and then self-assemble to form 3D aggregates. Importantly, the inventors are able to control dynamics of aggregation and size and number of aggregates by tuning pattern geometry and cell seeding density. 3D aggregates of static (compact aggregates without any migratory sequalae) and migratory phenotype (identified via cells migrating away from an aggregate and establishing connections with neighboring aggregates; see FIGS. 12A-B) can be identified post-culturing at day 2, day 4, day 6 and day 8. […] Thus, these capture time points have data on cell monolayers (Day 2), self-assembly (Days 3-4) and compact 3D aggregates (Days 5-8). Migratory 3D aggregate phenotypes are visible at Days 5 with maximum numbers of cellular bridges across aggregates seen at Days 6-7. […]
smiles,measurement,setting,value
"O=C(CCCCCCC(=O)Nc1ccccc1)NO [SAHA, suberoylanilide hydroxamic acid]",effect on size of 3D aggregates,"3 μM SAHA, treatment on day 7 post-seeding",reduce the size of 3D aggregates
same,effect on cellular bridges (invading multicellular microstructures),"3 μM SAHA, treatment on day 7 post-seeding, imaged Day 9",disassociates invading multicellular microstructures; also recorded: loss of cellular bridges
same,reduction in size (aggregate depth) post-treatment with SAHA,"SKOV3 3D aggregates on Si—TiB2, treated day 7 for 48 hours, compared to controls, mean±SEM, n=3, p<0.001",~50%

# Reference: patent US20230133393A1, “DIBORIDE MICROPATTERNED SURFACES FOR CELL CULTURE” (University of Houston System, priority 2020, published 2023)
